Data taken from the supplement of paper PMC12076712.

Experiments:
Experiment in all cases: pIC50, kinobeads binding competition
UniProt P06493 = target: UniProt P06493
Method in brief: (§1)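 Nine compound concentrations were tested, starting at 30 μM in 1:4 steps on live Jurkat cells (60 min, 37 °C, then lysis) or in 1:5 steps on Jurkat lysate or a 1:1:1:1 HEK293/K-562/HepG2/placenta lysate mix (60 min, 4 °C). Kinobeads-bound proteins were digested and quantified with TMT10 LC-MS/MS. pIC50 values are from logistic dose-response fits in the R drc package of fold changes relative to vehicle, from biological duplicates.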

MAST3 = MAST3 (UniProt O60307)
Method in brief: as §1

BMPR1A = BMPR1A (UniProt P36894)
Method in brief: as §1

MARK1 = MARK1 (UniProt Q9P0L2); details: cell material: Lysate mix
Method in brief: as §1

PRKCB = PRKCB (UniProt P05771)
Method in brief: as §1

UniProt Q8IW41 = target: T1, UniProt Q8IW41
T1 sequence (whole entry): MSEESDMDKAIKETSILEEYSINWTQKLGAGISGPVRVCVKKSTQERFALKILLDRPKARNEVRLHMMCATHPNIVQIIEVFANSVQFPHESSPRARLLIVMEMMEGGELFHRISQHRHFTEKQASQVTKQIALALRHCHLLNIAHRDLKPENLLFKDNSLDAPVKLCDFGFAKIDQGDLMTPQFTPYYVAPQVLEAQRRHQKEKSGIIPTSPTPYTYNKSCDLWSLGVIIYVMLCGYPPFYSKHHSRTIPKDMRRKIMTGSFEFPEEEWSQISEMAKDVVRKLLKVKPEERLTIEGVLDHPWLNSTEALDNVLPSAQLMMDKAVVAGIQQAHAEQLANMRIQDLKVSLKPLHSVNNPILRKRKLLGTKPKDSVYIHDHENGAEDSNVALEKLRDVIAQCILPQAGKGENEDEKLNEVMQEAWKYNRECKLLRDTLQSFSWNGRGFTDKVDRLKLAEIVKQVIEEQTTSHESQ
Method in brief: as §1

STK33 = STK33 (UniProt Q9BYT3)
Method in brief: as §1

SGK3 = target: T2, SGK3 (UniProt Q96BR1)
T2 sequence (whole entry): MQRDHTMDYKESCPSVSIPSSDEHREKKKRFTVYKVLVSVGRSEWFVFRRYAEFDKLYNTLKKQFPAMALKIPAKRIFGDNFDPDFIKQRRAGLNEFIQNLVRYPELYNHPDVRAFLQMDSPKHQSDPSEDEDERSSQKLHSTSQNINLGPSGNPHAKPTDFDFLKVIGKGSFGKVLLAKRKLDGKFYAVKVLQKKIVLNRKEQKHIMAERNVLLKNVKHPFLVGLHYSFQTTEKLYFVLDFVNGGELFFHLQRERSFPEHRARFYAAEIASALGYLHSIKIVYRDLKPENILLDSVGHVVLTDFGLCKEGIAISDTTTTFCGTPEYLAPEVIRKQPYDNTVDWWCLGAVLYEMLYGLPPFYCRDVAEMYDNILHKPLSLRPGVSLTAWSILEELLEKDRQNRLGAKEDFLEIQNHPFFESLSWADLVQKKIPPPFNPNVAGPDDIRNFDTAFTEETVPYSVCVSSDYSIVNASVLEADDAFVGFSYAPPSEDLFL
Method in brief: as §1

UniProt Q02763 = details: cell material: Lysate mix
Method in brief: as §1

NEK1 = target: T3, NEK1 (UniProt Q96PY6)
T3 sequence (whole entry): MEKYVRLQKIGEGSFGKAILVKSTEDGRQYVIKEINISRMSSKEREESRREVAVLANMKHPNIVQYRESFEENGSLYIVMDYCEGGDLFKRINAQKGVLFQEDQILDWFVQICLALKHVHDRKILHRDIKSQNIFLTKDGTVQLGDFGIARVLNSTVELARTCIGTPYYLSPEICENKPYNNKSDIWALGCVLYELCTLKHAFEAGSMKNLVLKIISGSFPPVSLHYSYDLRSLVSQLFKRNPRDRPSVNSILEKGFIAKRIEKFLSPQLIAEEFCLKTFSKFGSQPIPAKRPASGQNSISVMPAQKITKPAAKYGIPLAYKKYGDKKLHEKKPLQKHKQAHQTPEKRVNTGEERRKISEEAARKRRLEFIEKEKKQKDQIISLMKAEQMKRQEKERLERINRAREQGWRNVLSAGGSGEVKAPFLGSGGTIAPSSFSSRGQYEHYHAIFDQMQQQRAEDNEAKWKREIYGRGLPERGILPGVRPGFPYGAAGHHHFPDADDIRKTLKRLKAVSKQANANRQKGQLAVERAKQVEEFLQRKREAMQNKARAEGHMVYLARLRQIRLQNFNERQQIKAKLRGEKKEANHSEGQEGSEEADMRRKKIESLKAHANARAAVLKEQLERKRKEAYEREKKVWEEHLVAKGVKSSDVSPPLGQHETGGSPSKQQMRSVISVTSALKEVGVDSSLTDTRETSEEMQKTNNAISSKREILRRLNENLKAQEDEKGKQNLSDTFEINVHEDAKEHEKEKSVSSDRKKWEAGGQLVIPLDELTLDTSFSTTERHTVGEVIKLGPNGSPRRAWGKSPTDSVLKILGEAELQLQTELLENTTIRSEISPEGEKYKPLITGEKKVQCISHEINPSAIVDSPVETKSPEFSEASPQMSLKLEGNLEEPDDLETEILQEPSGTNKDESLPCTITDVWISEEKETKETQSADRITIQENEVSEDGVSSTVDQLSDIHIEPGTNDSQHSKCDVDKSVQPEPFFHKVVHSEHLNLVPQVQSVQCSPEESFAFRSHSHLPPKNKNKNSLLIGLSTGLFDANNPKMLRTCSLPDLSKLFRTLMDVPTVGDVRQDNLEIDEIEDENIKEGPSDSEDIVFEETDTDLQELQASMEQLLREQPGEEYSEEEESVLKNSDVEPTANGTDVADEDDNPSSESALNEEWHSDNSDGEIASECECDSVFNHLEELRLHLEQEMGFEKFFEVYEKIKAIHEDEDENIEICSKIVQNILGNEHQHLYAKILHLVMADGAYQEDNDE
Method in brief: as §1

PRKCB, sequence (P05771 whole entry, looked up): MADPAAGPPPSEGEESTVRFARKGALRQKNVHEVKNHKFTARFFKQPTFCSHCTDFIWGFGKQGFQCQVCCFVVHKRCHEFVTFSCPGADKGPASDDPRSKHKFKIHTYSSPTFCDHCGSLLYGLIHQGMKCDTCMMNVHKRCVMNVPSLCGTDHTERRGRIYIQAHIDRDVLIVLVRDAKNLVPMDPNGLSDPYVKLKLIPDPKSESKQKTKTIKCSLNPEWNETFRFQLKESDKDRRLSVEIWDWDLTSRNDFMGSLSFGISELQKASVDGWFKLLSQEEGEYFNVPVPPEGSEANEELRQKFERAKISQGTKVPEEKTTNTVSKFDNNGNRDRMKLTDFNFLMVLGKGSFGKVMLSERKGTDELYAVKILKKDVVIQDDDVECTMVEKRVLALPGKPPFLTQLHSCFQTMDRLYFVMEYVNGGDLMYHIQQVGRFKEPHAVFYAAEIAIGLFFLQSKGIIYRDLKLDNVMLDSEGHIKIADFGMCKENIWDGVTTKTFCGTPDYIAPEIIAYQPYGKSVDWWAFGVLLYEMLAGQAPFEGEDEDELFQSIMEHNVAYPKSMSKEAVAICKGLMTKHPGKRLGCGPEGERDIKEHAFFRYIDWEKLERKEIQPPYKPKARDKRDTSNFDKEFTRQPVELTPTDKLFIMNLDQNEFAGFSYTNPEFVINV
UniProt P06493, sequence (P06493 whole entry, looked up): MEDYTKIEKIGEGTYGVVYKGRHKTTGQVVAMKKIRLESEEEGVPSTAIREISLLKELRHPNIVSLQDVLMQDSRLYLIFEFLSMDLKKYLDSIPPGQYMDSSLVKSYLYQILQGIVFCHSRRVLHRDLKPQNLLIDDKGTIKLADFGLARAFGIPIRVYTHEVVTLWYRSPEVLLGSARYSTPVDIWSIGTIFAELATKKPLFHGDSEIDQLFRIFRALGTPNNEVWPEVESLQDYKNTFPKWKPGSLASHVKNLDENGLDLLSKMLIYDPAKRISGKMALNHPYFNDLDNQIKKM
UniProt Q02763, sequence (Q02763 whole entry): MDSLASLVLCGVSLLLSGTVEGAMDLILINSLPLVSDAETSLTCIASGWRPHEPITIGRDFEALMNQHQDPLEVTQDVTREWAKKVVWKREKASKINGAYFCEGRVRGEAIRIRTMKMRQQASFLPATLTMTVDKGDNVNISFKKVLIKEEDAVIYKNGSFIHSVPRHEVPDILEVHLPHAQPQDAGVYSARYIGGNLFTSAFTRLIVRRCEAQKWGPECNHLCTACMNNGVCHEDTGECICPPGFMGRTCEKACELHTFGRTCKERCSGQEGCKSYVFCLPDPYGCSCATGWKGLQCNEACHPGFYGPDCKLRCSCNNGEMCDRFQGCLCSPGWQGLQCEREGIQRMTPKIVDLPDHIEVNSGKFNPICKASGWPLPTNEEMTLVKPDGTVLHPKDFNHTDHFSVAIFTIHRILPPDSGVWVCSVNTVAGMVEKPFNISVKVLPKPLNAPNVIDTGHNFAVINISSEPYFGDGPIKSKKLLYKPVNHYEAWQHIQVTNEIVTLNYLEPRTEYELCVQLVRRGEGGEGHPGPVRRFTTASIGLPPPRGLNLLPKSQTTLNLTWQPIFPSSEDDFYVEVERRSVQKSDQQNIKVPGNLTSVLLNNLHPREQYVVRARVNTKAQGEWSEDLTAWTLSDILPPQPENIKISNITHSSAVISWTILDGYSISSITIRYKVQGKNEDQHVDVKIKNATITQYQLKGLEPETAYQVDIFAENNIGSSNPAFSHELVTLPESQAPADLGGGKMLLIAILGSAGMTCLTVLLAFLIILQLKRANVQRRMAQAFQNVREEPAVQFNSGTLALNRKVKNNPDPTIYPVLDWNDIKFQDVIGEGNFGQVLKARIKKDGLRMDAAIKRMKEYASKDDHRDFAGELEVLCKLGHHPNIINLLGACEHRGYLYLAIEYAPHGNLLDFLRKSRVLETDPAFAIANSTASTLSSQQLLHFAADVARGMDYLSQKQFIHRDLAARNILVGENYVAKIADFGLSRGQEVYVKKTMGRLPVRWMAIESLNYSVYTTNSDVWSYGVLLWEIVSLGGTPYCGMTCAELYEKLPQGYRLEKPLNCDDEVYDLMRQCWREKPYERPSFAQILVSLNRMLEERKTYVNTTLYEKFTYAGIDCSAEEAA
MARK1, sequence (Q9P0L2 whole entry, looked up): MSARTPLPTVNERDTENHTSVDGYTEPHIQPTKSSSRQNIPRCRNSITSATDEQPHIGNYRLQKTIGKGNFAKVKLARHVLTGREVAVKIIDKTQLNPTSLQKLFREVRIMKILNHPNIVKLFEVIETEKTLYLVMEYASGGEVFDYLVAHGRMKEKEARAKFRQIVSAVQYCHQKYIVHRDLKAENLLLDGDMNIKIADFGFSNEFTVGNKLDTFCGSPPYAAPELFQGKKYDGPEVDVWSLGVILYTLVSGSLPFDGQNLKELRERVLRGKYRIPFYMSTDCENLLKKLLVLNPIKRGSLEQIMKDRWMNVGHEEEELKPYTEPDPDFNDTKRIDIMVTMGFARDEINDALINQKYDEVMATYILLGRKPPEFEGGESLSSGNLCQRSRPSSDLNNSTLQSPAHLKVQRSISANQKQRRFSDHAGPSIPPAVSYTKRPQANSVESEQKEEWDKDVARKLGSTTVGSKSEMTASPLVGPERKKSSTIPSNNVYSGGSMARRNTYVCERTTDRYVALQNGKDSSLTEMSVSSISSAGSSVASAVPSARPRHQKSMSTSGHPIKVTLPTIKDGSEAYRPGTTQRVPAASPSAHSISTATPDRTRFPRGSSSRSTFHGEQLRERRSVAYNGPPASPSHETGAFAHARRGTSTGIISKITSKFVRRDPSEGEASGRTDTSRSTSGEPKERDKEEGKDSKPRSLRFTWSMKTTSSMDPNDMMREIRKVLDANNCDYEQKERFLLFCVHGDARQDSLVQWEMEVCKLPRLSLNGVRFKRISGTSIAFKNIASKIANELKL
STK33, sequence (Q9BYT3 whole entry, looked up): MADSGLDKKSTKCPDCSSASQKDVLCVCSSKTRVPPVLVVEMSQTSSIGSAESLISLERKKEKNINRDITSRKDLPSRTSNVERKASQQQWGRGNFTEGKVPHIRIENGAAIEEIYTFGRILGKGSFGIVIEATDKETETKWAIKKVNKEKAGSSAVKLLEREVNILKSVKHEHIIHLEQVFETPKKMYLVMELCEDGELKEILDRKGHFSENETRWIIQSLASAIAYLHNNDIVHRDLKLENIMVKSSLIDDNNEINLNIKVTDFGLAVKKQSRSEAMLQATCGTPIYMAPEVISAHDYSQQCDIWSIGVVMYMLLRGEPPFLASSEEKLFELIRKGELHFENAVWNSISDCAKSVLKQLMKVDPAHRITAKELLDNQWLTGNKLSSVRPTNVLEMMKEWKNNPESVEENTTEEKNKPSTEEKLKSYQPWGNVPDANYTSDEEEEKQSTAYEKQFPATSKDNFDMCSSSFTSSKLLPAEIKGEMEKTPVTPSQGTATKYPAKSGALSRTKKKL
MAST3, sequence (O60307 whole entry): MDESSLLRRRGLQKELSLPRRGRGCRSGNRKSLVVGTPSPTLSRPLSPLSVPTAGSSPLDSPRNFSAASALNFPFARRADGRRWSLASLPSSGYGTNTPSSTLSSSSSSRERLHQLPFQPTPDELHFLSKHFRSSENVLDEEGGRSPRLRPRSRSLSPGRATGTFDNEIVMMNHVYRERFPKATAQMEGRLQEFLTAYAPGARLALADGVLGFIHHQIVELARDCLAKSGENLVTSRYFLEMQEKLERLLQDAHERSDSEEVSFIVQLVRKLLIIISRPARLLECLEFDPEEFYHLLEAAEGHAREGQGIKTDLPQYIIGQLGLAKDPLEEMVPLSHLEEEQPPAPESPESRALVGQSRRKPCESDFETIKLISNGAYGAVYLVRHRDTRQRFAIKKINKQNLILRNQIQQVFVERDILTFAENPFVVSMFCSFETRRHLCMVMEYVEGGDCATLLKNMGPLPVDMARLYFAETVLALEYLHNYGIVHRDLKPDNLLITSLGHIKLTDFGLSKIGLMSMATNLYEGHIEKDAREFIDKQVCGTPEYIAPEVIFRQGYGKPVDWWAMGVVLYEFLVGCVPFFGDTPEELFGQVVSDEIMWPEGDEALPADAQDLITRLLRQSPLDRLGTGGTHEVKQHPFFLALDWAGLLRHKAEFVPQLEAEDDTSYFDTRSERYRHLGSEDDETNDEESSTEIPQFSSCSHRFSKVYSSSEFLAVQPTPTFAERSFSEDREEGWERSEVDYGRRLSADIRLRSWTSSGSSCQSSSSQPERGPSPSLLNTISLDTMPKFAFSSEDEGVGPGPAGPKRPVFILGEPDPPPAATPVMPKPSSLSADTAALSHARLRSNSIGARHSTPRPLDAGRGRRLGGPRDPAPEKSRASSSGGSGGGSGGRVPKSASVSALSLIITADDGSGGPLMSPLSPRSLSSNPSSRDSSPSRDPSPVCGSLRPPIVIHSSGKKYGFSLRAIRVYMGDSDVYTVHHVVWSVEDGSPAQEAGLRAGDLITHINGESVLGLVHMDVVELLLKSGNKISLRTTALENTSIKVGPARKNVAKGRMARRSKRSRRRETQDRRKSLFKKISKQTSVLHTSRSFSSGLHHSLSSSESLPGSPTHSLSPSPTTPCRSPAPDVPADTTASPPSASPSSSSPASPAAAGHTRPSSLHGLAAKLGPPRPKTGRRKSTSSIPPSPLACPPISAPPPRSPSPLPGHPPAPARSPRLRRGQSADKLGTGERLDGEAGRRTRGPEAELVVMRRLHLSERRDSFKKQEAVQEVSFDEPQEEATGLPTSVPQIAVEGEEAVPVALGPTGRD

pIC50 (UniProt P06493; cell material: Lysate mix)	pIC50 (MAST3; cell material: Lysate mix)	pIC50 (BMPR1A; cell material: Lysate mix)	pIC50 (MARK1)	pIC50 (PRKCB; cell material: Lysate mix)	pIC50 (UniProt Q8IW41; cell material: Lysate mix)	pIC50 (STK33; cell material: Lysate mix)	pIC50 (SGK3; cell material: Lysate mix)	pIC50 (UniProt Q02763)	pIC50 (NEK1; cell material: Lysate mix)	pIC50 (UniProt Q8IW41; cell material: Jurkat cells)	SMILES	pIC50 (UniProt P06493; cell material: Jurkat cells)	pIC50 (UniProt P06493; cell material: Jurkat lysate)	pIC50 (MAST3; cell material: Jurkat cells)	pIC50 (MAST3; cell material: Jurkat lysate)	pIC50 (BMPR1A; cell material: Jurkat cells)	pIC50 (BMPR1A; cell material: Jurkat lysate)	pIC50 (PRKCB; cell material: Jurkat lysate)	pIC50 (UniProt Q8IW41; cell material: Jurkat lysate)	pIC50 (STK33; cell material: Jurkat cells)	pIC50 (STK33; cell material: Jurkat lysate)	pIC50 (SGK3; cell material: Jurkat cells)	pIC50 (SGK3; cell material: Jurkat lysate)	pIC50 (NEK1; cell material: Jurkat cells)	pIC50 (NEK1; cell material: Jurkat lysate)	pIC50 (PRKCB; cell material: Jurkat cells)
< 4.52	4.84	< 4.52	< 4.52	< 4.52	< 4.52	< 4.52	5.22	< 4.52	< 4.52	–	Cc1cc(Nc2cc(C(=O)NCCNC(=O)OC3CC/C=C/CCC3)nc(N3CCN(Cc4ccc(S(=O)(=O)F)cc4)CC3)n2)n[nH]1 (centres undefined)	–	–	–	–	–	–	–	–	–	–	–	–	–	–	–
< 4.52	6.16	< 4.52	< 4.52	< 4.52	< 4.52	< 4.52	6.06	< 4.52	< 4.52	–	C#CCNC(=O)c1cc(Nc2cc(C)[nH]n2)nc(N2CCN(Cc3ccc(S(=O)(=O)F)cc3)CC2)n1	–	–	–	–	–	–	–	–	–	–	–	–	–	–	–
< 4.52	4.9	< 4.52	< 4.52	< 4.52	< 4.52	< 4.52	4.88	< 4.52	< 4.52	< 4.52	O=C(NCCNC(=O)c1cc(Nc2cc(C3CC3)[nH]n2)nc(N2CCN(Cc3ccc(S(=O)(=O)F)cc3)CC2)n1)OC1CC/C=C/CCC1 (centres undefined)	5.11	< 4.52	6.5	5.06	< 4.52	< 4.52	< 4.52	< 4.52	5.76	< 4.52	6.44	4.92	5.43	< 4.52	–
< 4.52	6.39	< 4.52	< 4.52	< 4.52	< 4.52	< 4.52	5.98	< 4.52	< 4.52	–	CCNC(=O)c1cc(Nc2cc(C)[nH]n2)nc(N2CCN(Cc3ccc(S(=O)(=O)F)cc3)CC2)n1	–	–	–	–	–	–	–	–	–	–	–	–	–	–	–
5.5	6.22	4.87	< 4.52	< 4.52	< 4.52	5.67	5.67	< 4.52	4.86	–	CCNC(=O)c1cc(Nc2cc(C3CC3)[nH]n2)nc(N2CCN(Cc3ccc(S(=O)(=O)F)cc3)CC2)n1	–	–	–	–	–	–	–	–	–	–	–	–	–	–	–

SMILES	pIC50 (UniProt P06493; cell material: Lysate mix)	pIC50 (MAST3; cell material: Lysate mix)	pIC50 (BMPR1A; cell material: Lysate mix)	pIC50 (MARK1)	pIC50 (PRKCB; cell material: Lysate mix)	pIC50 (UniProt Q8IW41; cell material: Lysate mix)	pIC50 (STK33; cell material: Lysate mix)	pIC50 (SGK3; cell material: Lysate mix)	pIC50 (UniProt Q02763)	pIC50 (NEK1; cell material: Lysate mix)	pIC50 (UniProt Q8IW41; cell material: Jurkat cells)	pIC50 (UniProt P06493; cell material: Jurkat cells)	pIC50 (UniProt P06493; cell material: Jurkat lysate)	pIC50 (MAST3; cell material: Jurkat cells)	pIC50 (MAST3; cell material: Jurkat lysate)	pIC50 (BMPR1A; cell material: Jurkat cells)	pIC50 (BMPR1A; cell material: Jurkat lysate)	pIC50 (PRKCB; cell material: Jurkat lysate)	pIC50 (UniProt Q8IW41; cell material: Jurkat lysate)	pIC50 (STK33; cell material: Jurkat cells)	pIC50 (STK33; cell material: Jurkat lysate)	pIC50 (SGK3; cell material: Jurkat cells)	pIC50 (SGK3; cell material: Jurkat lysate)	pIC50 (NEK1; cell material: Jurkat cells)	pIC50 (NEK1; cell material: Jurkat lysate)	pIC50 (PRKCB; cell material: Jurkat cells)
C#CCNC(=O)c1cc(Nc2cc(C3CC3)[nH]n2)nc(N2CCN(Cc3ccc(S(=O)(=O)F)cc3)CC2)n1	5.7	6.56	4.99	< 4.52	< 4.52	< 4.52	5.82	5.96	< 4.52	–	–	6.32	5.37	6.54	6.27	4.69	< 4.52	< 4.52	< 4.52	6.2	5.12	6.6	5.65	5.94	< 4.52	5.46
